# Earlier results as cited in patent US5776505A (Bayer Aktiengesellschaft, priority 1995, dated 1998).
# Conditions: cross-over study; with magnesium hydroxide
structure (smiles),measurement,value
CC(C)Cc1ccc(C(C)C(=O)O)cc1 (stereo not shown) [ibuprofen],plasma concentration as a result of addition of magnesium hydroxide,higher plasma concentration
